We go through 41 compounds from patent US9890138B2, “Diaminopyrimidine derivatives and processes for the preparation thereof” (YUHAN CORPORATION, priority 2011, dated 2018).

The target in this assay is T1, human 5-HT4(a) (Homo sapiens, UniProt Q13639).
T1 construct: host or cells: GeneBlAzer HTR4-CRE-bla CHO-K1 cells
The assay is described as follows: Evaluation of agonistic activity in CHO-K1 cells expressing human 5-HT4(a) (GeneBlAzer HTR4-CRE-bla CHO-K1, beta-lactamase reporter). The class given is cell-based. The note with it: CHO-K1 cells stably expressing human 5-HT4(a). Here is the method: Test Example 1: Evaluation of Agonistic Activity in CHO-K1 Cells Expressing Human 5-HT4(a)
As CHO-K1 cells stably expressing human 5-HT4(a), we used the GeneBlAzer HTR4-CRE-bla CHO-K1 cells (Invitrogen Corp.). The cells were cultured, under the condition of 37[…] and 5% CO2, in a DMEM supplemented with 10% fetal bovine serum (FBS), 25 mM HEPES (pH7.4), 600 μg/ml hygromycin B, 0.1 mM non-essential amino acids, 100 unit/ml penicillin and 100 μg/ml streptomycin. Subcultures were performed three times per one week, each being at less than 80% confluence. At the previous day before treating test compounds, the cells were collected using 0.5% trypsin/EDTA and then diluted with a DMEM supplemented with 1% FBS, 25 mM HEPES, and 0.1 mM non-essential amino acids into 3.125×10^5 cells/ml. 32 μl of the diluted cells were added into 384-well plate (10^4 cells per well) and then incubated overnight. After the overnight culture, 8 μl of the medium having 1% of DMSO was added into the cell-free control well and the non-stimulating control well, respectively. 8 μl of the respective test compound dilutions (which had been prepared by diluting by 100-times with the medium as mentioned in the above) having 1% of DMSO were added to the respective remaining wells. After being cultured in the incubator for 5 hours, the wells of the 384-plate were treated with the substrate solution (8 μl per well) prepared according to the vendor's instruction (i.e., Invitrogen's instruction), and then incubated in the dark room for additional two hours. Agonistic activities on 5-HT4 receptor were evaluated, on the basis of fluorescence values of the cleavage-products by beta-lactamase. After exciting to 410 nm of wavelength using a fluorescence detector (Genios Pro), we measured the fluorescence values at two emission wavelengths (first wavelength: 465 nm, second wavelength: 535 nm). Data were analyzed on the basis of the ratio of fluorescence intensities of each well at the respective wavelengths. Each EC50 value was calculated by non-linear regression analysis using the “GraphPad Prism” program, based on the activities according to 8-different concentrations of the test compounds.

Structures can show the parent of a compound that is named as a salt.

T1 sequence (Q13639 1-387 isoform Q13639-2): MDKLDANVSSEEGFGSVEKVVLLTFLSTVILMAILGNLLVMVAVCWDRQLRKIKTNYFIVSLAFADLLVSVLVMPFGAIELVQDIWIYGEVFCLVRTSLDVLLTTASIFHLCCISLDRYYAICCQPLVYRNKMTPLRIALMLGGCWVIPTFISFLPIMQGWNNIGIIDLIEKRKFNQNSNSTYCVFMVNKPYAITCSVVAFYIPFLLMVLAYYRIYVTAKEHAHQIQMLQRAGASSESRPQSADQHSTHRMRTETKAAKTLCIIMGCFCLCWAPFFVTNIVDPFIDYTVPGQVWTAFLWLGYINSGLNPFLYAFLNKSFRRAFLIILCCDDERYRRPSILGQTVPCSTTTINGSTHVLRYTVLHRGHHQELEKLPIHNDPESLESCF

What is called EC50 is the midpoint of the concentration-response curve. Read a low EC50 as greater potency. With `CCCc1cc(N2CCC(NCC)C2)nc(Nc2ccc(F)cc2)n1` (centres unmarked) [Example 13, 4-[3-(ethylamino)pyrrolidin-1-yl]-N-(4-fluorophenyl)-6-propylpyrimidin-2-amine], it took 120 pM to reach a half-maximal effect (EC50).
To `CCCc1cc(N2CCC[C@H]2COC)nc(Nc2ccc(OC)c(N)c2)n1` [Example 367, (S)-4-methoxy-N^1-{4-[2-(methoxymethyl)pyrrolidin-1-yl]-6-propylpyrimidin-2-yl}benzene-1,3-diamine] belongs 153 pM; to `CCCc1cc(N2CC[C@H](NCc3cccc(F)c3)C2)nc(Nc2cccc(C#N)c2)n1` [Example 90, (S)-3-{4-[3-(3-fluorobenzylamino)pyrrolidin-1-yl]-6-propylpyrimidin-2-ylamino}benzonitrile], 91 pM.
As for `CCCCc1cc(N2CC[C@H](NC(C)=O)C2)nc(Nc2ccc(N)c(C#N)c2)n1` [Example 446], the concentration giving a half-maximal response (EC50) came out at 7.7 pM. Compared with the last compound, the EC50 is about 12-fold lower.
To `CCCCc1cc(N2CC[C@H](NC(C)=O)C2)nc(Nc2cc(N)cc(C#N)c2)n1` [Example 439] belongs 7.5 pM; to `CCCc1cc(N2CC[C@H](NCC)C2)nc(Nc2ccc(F)c(C(F)(F)F)c2)n1` [Example 491, (S)-4-[3-(ethylamino)pyrrolidin-1-yl]-N-[4-fluoro-3-(trifluoromethyl)phenyl]-6-propylpyrimidin-2-amine hydrochloride], 2.9 pM; to `CCCc1cc(N2CCC[C@H]2CO)nc(Nc2ccc(F)c([N+](=O)[O-])c2)n1` [Example 208, (S)-{1-[2-(4-fluoro-3-nitrophenylamino)-6-propylpyrimidin-4-yl]pyrrolidin-2-yl}methanol], 60 pM.
The compound `CCCc1cc(N2CC[C@H](NCC(C)(C)C)C2)nc(Nc2cccc(C#N)c2)n1` [Example 105, (S)-3-{4-[3-(neopentylamino)pyrrolidin-1-yl]-6-propylpyrimidin-2-ylamino}benzonitrile] registered a concentration for a half-maximal effect (EC50) of 5 pM.
`CCCCc1cc(N2CC[C@H](NC)C2)nc(Nc2ccc(N)c(C(F)(F)F)c2)n1` [Example 453]: the half-maximal effective concentration (EC50) came out at 1.6 pM.
To `CCCc1cc(N2CC[C@H](NCc3ccc(C(F)(F)F)cc3)C2)nc(Nc2cccc(C#N)c2)n1` [Example 108, (S)-3-(4-propyl-6-{3-[4-(trifluoromethyl)benzylamino]pyrrolidin-1-yl}pyrimidin-2-ylamino)benzonitrile] belongs 210 pM.
On to `CCCc1cc(N2CC[C@H](NC(=O)COCc3ccccc3)C2)nc(Nc2cccc(C#N)c2)n1` [Example 158], for which the midpoint of the response, the EC50, lay at 436 pM. This EC50 is about 2.1-fold higher than that of the compound before.
To `C/C=C(\C)C(=O)N[C@H]1CCN(c2cc(CCC)nc(Nc3cccc(C#N)c3)n2)C1` [Example 149, (S,E)-N-{1-[2-(3-cyanophenylamino)-6-propylpyrimidin-4-yl]pyrrolidin-3-yl}-2-methylbut-2-enamide] belongs 277 pM.
To `CCCc1cc(N2CC[C@H](NC(C)=O)C2)nc(Nc2ccc3cc[nH]c3c2)n1` [Example 243] belongs 11 pM; to `CCCc1cc(N2CC[C@H](NC)C2)nc(Nc2ccc(N)c(C#N)c2)n1` [Example 486], 1.4 pM.
Compound `CCCc1cc(N2CC[C@H](NCCNC(=O)OC(C)(C)C)C2)nc(Nc2cccc(C#N)c2)n1` [Example 136, (S)-tert-butyl 2-{1-[2-(3-cyanophenylamino)-6-propylpyrimidin-4-yl]pyrrolidin-3-ylamino}ethylcarbamate] returned an EC50 of 45 pM.
As to `CCCc1cc(N2CC[C@H](NCc3ccc(F)cc3)C2)nc(Nc2cccc(C#N)c2)n1` [Example 98, (S)-3-{4-[3-(4-fluorobenzylamino)pyrrolidin-1-yl]-6-propylpyrimidin-2-ylamino}benzonitrile], a half-maximal response (EC50) required 94 pM.
To `CCCc1cc(N2CC[C@H](NC3CCN(C(C)=O)CC3)C2)nc(Nc2cccc(C#N)c2)n1` [Example 140, (S)-3-{4-[3-(1-piperidin-4-acetylpiperidin-4-ylamino)pyrrolidin-1-yl]-6-propylpyrimidin-2-ylamino}benzonitrile] belongs 28 pM; to `CCCCc1cc(N2CC[C@H](NC(C)=O)C2)nc(Nc2ccc(Cl)c(N)c2)n1` [Example 445], 9.8 pM.
Regarding `CCCCc1cc(N2CC[C@H](N(CC)CC)C2)nc(Nc2cccc(C#N)c2)n1` [Example 236], it took 209 pM to reach a half-maximal effect (EC50).
Compound `CCCc1cc(N2CC[C@H](NS(C)(=O)=O)C2)nc(Nc2cccc(C#N)c2)n1` [Example 125, (S)-N-{1-[2-(3-cyanophenylamino)-6-propylpyrimidin-4-yl]pyrrolidin-3-yl}methanesulfonamide] displayed an EC50 of 159 pM. The EC50 values of the last two compounds are within 1.5-fold of each other.
The same measure for `CCCc1cc(N2CC[C@H](NCC(C)(C)C)C2)nc(Nc2ccc(C)c(C#N)c2)n1` [Example 423]: 8.4 pM.
The same measure for `CCCc1cc(N2CCC(NC(C)=O)C2)nc(Nc2cccc(SC)c2)n1` (centres unmarked) [Example 305]: 180 pM; for `CCCc1cc(N2CCC[C@H]2CO)nc(Nc2cccc(SC)c2)n1` [Example 195]: 250 pM.
Regarding `CCCc1cc(N2CCC[C@H]2C)nc(Nc2ccc3c(C)cc(=O)oc3c2)n1` [Example 317], the EC50 stood at 140 pM.
Regarding `CCCc1cc(N2CCC[C@H]2COC)nc(Nc2ccc(Cl)c([N+](=O)[O-])c2)n1` [Example 33, (S)-N-(4-chloro-3-nitrophenyl)-4-[2-(methoxymethyl)pyrrolidin-1-yl]-6-propyl pyrimidin-2-amine], a half-maximal response (EC50) required 59 pM. This EC50 lies about 2.4-fold lower than the previous one.
Take `CCCc1cc(N2CC[C@H](N)C2)nc(Nc2cc(Cl)ccc2C)n1` [Example 348, (S)-4-(3-aminopyrrolidin-1-yl)-N-(5-chloro-2-methylphenyl)-6-propylpyrimidin-2-amine dihydrochloride]: the EC50 was 19 pM.
To `CCCc1cc(N2CCC[C@H]2CO)nc(Nc2ccc(C)c([N+](=O)[O-])c2)n1` [Example 210, (S)-{1-[2-(4-methyl-3-nitrophenylamino)-6-propylpyrimidin-4-yl]pyrrolidin-2-yl}methanol] belongs 16 pM; to `CCCc1cc(N2CC[C@H](NC(=O)CN3CCCCC3)C2)nc(Nc2ccc(C)c(C#N)c2)n1` [Example 427], 24 pM.
To `CCCc1cc(N2CC[C@H](NC(=O)CC(F)(F)F)C2)nc(Nc2cccc(C#N)c2)n1` [Example 82, (S)-N-{1-[2-(3-cyanophenylamino)-6-propylpyrimidin-4-yl]pyrrolidin-3-yl}-3,3,3-trifluoropropanamide] belongs 48 pM; to `CCCc1cc(N2CC[C@H](NC(=O)CCN3CCCCC3)C2)nc(Nc2cccc(C#N)c2)n1` [Example 63, (S)-N-{1-[2-(3-cyanophenylamino)-6-propylpyrimidin-4-yl]pyrrolidin-3-yl}-3-(piperidin-1-yl)propanamide], 130 pM; to `CCCCc1cc(N2CC[C@H](NC(C)=O)C2)nc(Nc2ccc(F)c(C(F)(F)F)c2)n1` [Example 442], 41 pM.
To `CCCc1cc(N2CC[C@H](NC(=O)Cc3cccnc3)C2)nc(Nc2ccc(C)c(C#N)c2)n1` [Example 428] belongs 66 pM.
Regarding `CCCc1cc(N2CC[C@H](NC3CCCCC3)C2)nc(Nc2cccc(C#N)c2)n1` [Example 135, (S)-3-{4-[3-(cyclohexylamino)pyrrolidin-1-yl]-6-propylpyrimidin-2-ylamino}benzonitrile], the EC50 came out at 11 pM.
To `CCCc1cc(N2CC[C@H](NC(=O)CN3CCCCC3)C2)nc(Nc2cccc(C#N)c2)n1` [Example 71, (S)-N-{1-[2-(3-cyanophenylamino)-6-propylpyrimidin-4-yl]pyrrolidin-3-yl}-2-(piperidin-1-yl)acetamide] belongs 250 pM; to `CCCCc1cc(N2CC[C@H](NCC)C2)nc(Nc2ccc(Cl)c([N+](=O)[O-])c2)n1` [Example 464], 3.9 pM; to `CCCCc1cc(N2CC[C@H](NCC3CC3)C2)nc(Nc2ccc(C)c(C#N)c2)n1` [Example 240], 2.5 pM.
On to `CCCc1cc(N2CCC[C@H]2CNC)nc(Nc2cccc(C#N)c2)n1` [Example 403], for which the 50% effective concentration (EC50) is 414 pM.
Regarding `CCCc1cc(N2CCC[C@H]2CO)nc(Nc2ccc(N)c([N+](=O)[O-])c2)n1` [Example 212, (S)-{1-[2-(4-amino-3-nitrophenylamino)-6-propylpyrimidin-4-yl]pyrrolidin-2-yl}methanol], the concentration giving a half-maximal response (EC50) amounted to 8.9 pM.
In turn, `CCCc1cc(N2CC[C@H](NC3CCCC3)C2)nc(Nc2ccc(C)c(C#N)c2)n1` [Example 420] came in with an EC50 of 2.9 pM. Against the preceding compound, the EC50 is about 3.1-fold lower.
The same measure for `CCCCc1cc(N2CC[C@H](NCC)C2)nc(Nc2ccc(N)c(C#N)c2)n1` [Example 458]: 1.7 pM; for `CCCc1cc(N2CC[C@H](NC(C)=O)C2)nc(Nc2ccc(N)c(C(F)(F)F)c2)n1` [Example 261]: 7.1 pM.
